Measured values taken from patent US9718861B2 (Universitaet Leipzig, priority 2011, dated 2017).
Where two headings read alike, the source gives them in different places. Values belong to the compound of their own block, whether it stands above or below them. Where a SMILES comes first, the peptide text is derived from it. Where no end group is shown, it is not given here. [ ]: non-standard residue; d: D form. d1Nal = N[C@H](Cc1cccc2ccccc12)C(=O)O; Cha = N[C@@H](CC1CCCCC1)C(=O)O; Phg = N[C@H](C(=O)O)c1ccccc1; Nva = CCC[C@H](N)C(=O)O

Experiments:
[1] = molecular target: T1, ghrelin receptor (Homo sapiens, UniProt Q92847); assay: Inositol trisphosphate turnover assay in COS-7 cells transfected with the ghrelin receptor; format: cell-based; design: expressed in transfected cells; settings: for Emax: COS-7; for Emax ± SEM: efficacy; for EC50: mean ± SEM of n experiments
Target sequence in this assay (Q92847 whole entry): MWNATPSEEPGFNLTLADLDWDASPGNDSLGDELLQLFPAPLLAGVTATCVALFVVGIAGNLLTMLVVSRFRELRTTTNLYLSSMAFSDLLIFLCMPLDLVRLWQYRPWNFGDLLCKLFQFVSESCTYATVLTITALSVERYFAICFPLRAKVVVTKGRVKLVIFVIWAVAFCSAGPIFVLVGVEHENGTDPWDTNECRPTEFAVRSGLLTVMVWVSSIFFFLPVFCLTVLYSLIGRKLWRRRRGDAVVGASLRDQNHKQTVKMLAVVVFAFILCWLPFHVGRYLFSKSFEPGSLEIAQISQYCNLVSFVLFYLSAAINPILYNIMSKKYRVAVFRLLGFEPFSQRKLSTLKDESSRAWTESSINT
Method: COS-7 cells were grown in a humidified atmosphere at 37° C. and 5% CO2 in Dulbecco's modified Eagle's medium with higher glucose supplemented with 10% (v/v) FCS and 1% (v/v) penicillin/streptomycin. COS-7 cells were seeded out in 24-well plates (80.000-100.000 cells/well) in DMEM with 10% FCS. […] Each well was treated with 0.3 μg DNA and 0.9 μl metafectene.
The day after transfection, or the day after seeding for stable cells, cells were incubated with myo-[2-^3H]-inositol (2 μCi/ml) for 18 h and washed with DMEM/LiCl. Stimulation was then carried out with seven to nine different peptide concentrations in DMEM containing 10 mM LiCl, for 2 h, in duplicates. Stimulation was stopped by aspirating the medium and subsequently, cells were lysed with 150 μl of 0.1M NaOH for 5 min at RT. 50 μl of 0.2M HCOOH were added and the solution was diluted using 1 ml dilution buffer. […] Obtained data was analyzed with GraphPad Prism 3.0 (GraphPad Software). Therefore, dpm values are assigned to the corresponding peptide concentrations. Non-linear regression was used to obtain sigmoidal curves. For better comparability, dpm values were normalized to the constitutive activity. Constitutive activity of 100% represents the basal activity, the activity of the receptor without the influence of peptides. Emax is the efficacy of the peptide and represents the difference between constitutive activity and activity at maximal effect of the peptide. EC50 is the peptide concentration at half-maximal effect.

[2] = system: rats; assay: ICV administration to rats, food intake; format: in vivo; settings: 1 nmol/rat, n=6, vs vehicle 0.9% saline with DMSO
Text: For in vivo studies, peptide 3 was delivered intracerebroventricularly. The rats were stereotaxically implanted with a stainless steel cannula (Holm Finmekanik AS, Copenhagen, Denmark) aimed at the right lateral ventricle 1 mm caudal and 1.5 mm lateral to bregma and 4 mm ventral to cranium externa. Rats were left to recover in the metabolic cages (MANI Feed Win, Ellegaard Systems) for adaptation for at least 5 days, only interrupted by daily handling and body weight measurements. With these cages we could accurately measure the food and water intake of rats for up to 48 hours. The powdered diet used eliminated food hoarding and spill. Cannula placement was confirmed by measuring the drinking response to angiotensin injection (100 nmol/rat). Administration of peptide was done with 1 nmol/rat (n=6). As a negative control, a vehicle solution of 0.9% saline with DMSO (n=7) was used.

[3] = molecular target: T1, ghrelin receptor; settings: background, cited from earlier work
Target sequence in this assay (Q92847 whole entry, species assumed): as the sequence (Q92847 whole entry) above

[4] = molecular target: T1, ghrelin receptor; settings: background; cited from earlier work
Target sequence in this assay (Q92847 whole entry, species assumed): as the sequence (Q92847 whole entry) above

[5] = inverse agonistic activity, read-out: efficacy (Emax)
[6] = inverse agonistic activity, difference to constitutive activity (Table 2)
[7] = inverse agonistic activity, analogs KxFwLL-NH2 (Table 2)
[8] = shift in efficacy compared to KwFwLL-NH2, inverse agonistic activity
[9] = shift in potency compared to KwFwLL-NH2, inverse agonistic activity
[10] = agonistic activity, read-out: Emax
[11] = agonistic activity, ghrelin and analogs KwFxLL-NH2 (Table 3)
[12] = agonistic activity, difference to constitutive activity (Table 3)
[13] = shift in efficacy compared to ghrelin, agonistic activity
[14] = shift in potency compared to ghrelin, agonistic activity
[15] = inverse agonistic activity, analogs K-(D-1-Nal)-xwLL-NH2 (Table 5)
[16] = shift of efficacy compared to K-(D-1-Nal)-FwLL-NH2, inverse agonistic activity
[17] = shift of potency compared to K-(D-1-Nal)-FwLL-NH2, inverse agonistic activity

Compound: CC(C)C[C@H](NC(=O)[C@H](CC(C)C)NC(=O)[C@@H](Cc1c[nH]c2ccccc12)NC(=O)[C@H](Cc1ccccc1)NC(=O)[C@@H](Cc1c[nH]c2ccccc12)NC(=O)[C@@H](N)CCCCN)C(N)=O [Peptide 2, KwFwLL-NH2, reference compound]
Emax [1, 5]: 37%
Emax ± SEM [1, 6]: 37 ± 5 Δ %
EC50 [1, 7]: 45.6 nM
x-fold (Emax) [1, 8]: 1 x-fold
x-fold (EC50) [1, 9]: 1 x-fold

Compound: CC(C)C[C@H](NC(=O)[C@H](CC(C)C)NC(=O)[C@@H](Cc1c[nH]c2ccccc12)NC(=O)[C@H](Cc1ccccc1)NC(=O)[C@@H](Cc1cccc2ccccc12)NC(=O)[C@@H](N)CCCCN)C(N)=O [Peptide 3, K-(D-1-Nal)-FwLL-NH2]
decrease of food intake compared to vehicle [2]: ~5 fold

Emax [1, 5]: > 80%
Emax ± SEM [1, 6]: 87 ± 2 Δ %
increase in activity compared with peptide 2 (KwFwLL-NH2) ([1]; inverse agonistic activity): 3.5 fold
x-fold (Emax) [1, 8]: 2.4 x-fold
x-fold (EC50) [1, 9]: 0.29 x-fold
Compound: CC(C)C[C@H](NC(=O)[C@H](CC(C)C)NC(=O)[C@@H](Cc1c[nH]c2ccccc12)NC(=O)[C@H](Cc1ccccc1)NC(=O)[C@H](NC(=O)[C@@H](N)CCCCN)C(c1ccccc1)c1ccccc1)C(N)=O [Peptide 5, K-(D-Dip)-FwLL-NH2]

activity at the ghrelin receptor (in words) [1]: moderate activity
Emax ± SEM [1, 6]: 66 ± 4 Δ %
EC50 [1, 7]: 161 nM
x-fold (Emax) [1, 8]: 1.8 x-fold
x-fold (EC50) [1, 9]: 3.54 x-fold
Compound: CC(C)C[C@H](NC(=O)[C@H](CC(C)C)NC(=O)[C@@H](Cc1c[nH]c2ccccc12)NC(=O)[C@H](Cc1ccccc1)NC(=O)[C@@H](Cc1ccc2ccccc2c1)NC(=O)[C@@H](N)CCCCN)C(N)=O [Peptide 6, K-(D-2-Nal)-FwLL-NH2]

Compound: CC(C)C[C@H](NC(=O)[C@H](CC(C)C)NC(=O)[C@@H](Cc1c[nH]c2ccccc12)NC(=O)[C@H](Cc1ccccc1)NC(=O)[C@@H](Cc1ccc(C(=O)c2ccccc2)cc1)NC(=O)[C@@H](N)CCCCN)C(N)=O [Peptide 7, K-(D-Bpa)-FwLL-NH2]
activity at the ghrelin receptor (in words) [1]: moderate activity
Emax ± SEM [1, 6]: 67 ± 7 Δ %
x-fold (Emax) [1, 8]: 1.8 x-fold
x-fold (EC50) [1, 9]: 3.70 x-fold

activity at the ghrelin receptor (in words) [1]: moderate activity
Emax [1, 5]: > 80%
Emax ± SEM [1, 6]: 82 ± 0 Δ %
x-fold (Emax) [1, 8]: 2.2 x-fold
x-fold (EC50) [1, 9]: 4.03 x-fold
Compound: CC(C)C[C@H](NC(=O)[C@H](CC(C)C)NC(=O)[C@@H](Cc1c[nH]c2ccccc12)NC(=O)[C@H](Cc1ccccc1)NC(=O)[C@@H](Cc1ccc(-c2ccccc2)cc1)NC(=O)[C@@H](N)CCCCN)C(N)=O [Peptide 8, K-(D-Bip)-FwLL-NH2]

activity at the ghrelin receptor (in words) [1]: moderate activity
Emax ± SEM [1, 6]: 62 ± 4 Δ %
EC50 [1, 7]: 241 nM
x-fold (Emax) [1, 8]: 1.7 x-fold
x-fold (EC50) [1, 9]: 5.28 x-fold
Compound: CC(C)C[C@H](NC(=O)[C@H](CC(C)C)NC(=O)[C@@H](Cc1c[nH]c2ccccc12)NC(=O)[C@H](Cc1ccccc1)NC(=O)[C@@H](Cc1ccccc1)NC(=O)[C@@H](N)CCCCN)C(N)=O [Peptide 9, K-(D-Phe)-FwLL-NH2]

Emax [1, 10]: 54%
EC50 [1, 11]: 17.9 nM
Emax ± SEM [1, 12]: 54 ± 10 Δ %
x-fold (Emax) [1, 13]: 0.3 x-fold
x-fold (EC50) [1, 14]: 12.8 x-fold
Compound: CC(C)C[C@H](NC(=O)[C@H](CC(C)C)NC(=O)[C@@H](Cc1cccc2ccccc12)NC(=O)[C@H](Cc1ccccc1)NC(=O)[C@@H](Cc1c[nH]c2ccccc12)NC(=O)[C@@H](N)CCCCN)C(N)=O [Peptide 12, KwF-(D-1-Nal)-LL-NH2]

Emax [1, 10]: 156%
EC50 [1, 11]: 12.6 nM
percent of ghrelin efficacy ([1]; agonistic activity, relative to ghrelin): 96%
Emax ± SEM [1, 12]: 156 ± 22 Δ %
x-fold (Emax) [1, 13]: 1 x-fold
x-fold (EC50) [1, 14]: 9.00 x-fold
Compound: CC(C)C[C@H](NC(=O)[C@H](CC(C)C)NC(=O)[C@@H](Cc1ccc2ccccc2c1)NC(=O)[C@H](Cc1ccccc1)NC(=O)[C@@H](Cc1c[nH]c2ccccc12)NC(=O)[C@@H](N)CCCCN)C(N)=O [Peptide 13, KwF-(D-2-Nal)-LL-NH2]

activity at the ghrelin receptor (in words) [1]: no activity
Compound: CC(C)C[C@H](NC(=O)[C@H](CC(C)C)NC(=O)[C@@H](Cc1ccc(-c2ccccc2)cc1)NC(=O)[C@H](Cc1ccccc1)NC(=O)[C@@H](Cc1c[nH]c2ccccc12)NC(=O)[C@@H](N)CCCCN)C(N)=O [Peptide 14, KwF-(D-Bip)-LL-NH2]

activity at the ghrelin receptor (in words) [1]: no activity
Compound: CC(C)C[C@H](NC(=O)[C@H](CC(C)C)NC(=O)[C@@H](Cc1ccc(C(=O)c2ccccc2)cc1)NC(=O)[C@H](Cc1ccccc1)NC(=O)[C@@H](Cc1c[nH]c2ccccc12)NC(=O)[C@@H](N)CCCCN)C(N)=O [Peptide 15, KwF-(D-Bpa)-LL-NH2]

activity at the ghrelin receptor (in words) [1]: no activity
Compound: CC(C)C[C@H](NC(=O)[C@H](CC(C)C)NC(=O)[C@H](NC(=O)[C@H](Cc1ccccc1)NC(=O)[C@@H](Cc1c[nH]c2ccccc12)NC(=O)[C@@H](N)CCCCN)C(c1ccccc1)c1ccccc1)C(N)=O [Peptide 16, KwF-(D-Dip)-LL-NH2]

activity at the ghrelin receptor (in words) [1]: totally suppressed activity
Compound: CC(C)C[C@H](NC(=O)[C@H](CC(C)C)NC(=O)[C@@H](Cc1cccc2ccccc12)NC(=O)[C@H](Cc1ccccc1)NC(=O)[C@@H](Cc1cccc2ccccc12)NC(=O)[C@@H](N)CCCCN)C(N)=O [Peptide 18, K-(D-1-Nal)-F-(D-1-Nal)-LL-NH2]

Emax [1, 5]: 40%
Emax ± SEM ([1]; inverse agonistic activity, analogs KxFxLL-NH2 (Table 4)): 40 ± 2 Δ %
Compound: CC(C)C[C@H](NC(=O)[C@H](CC(C)C)NC(=O)[C@@H](Cc1csc2ccccc12)NC(=O)[C@H](Cc1ccccc1)NC(=O)[C@@H](Cc1cccc2ccccc12)NC(=O)[C@@H](N)CCCCN)C(N)=O [Peptide 19, K-(D-1-Nal)-F-(D-Bth)-LL-NH2]

Emax ± SEM [1, 15]: 85 ± 3 Δ %
x-fold (Emax) [1, 16]: 1.3 x-fold
x-fold (EC50) [1, 17]: 28.5 x-fold
Compound: CC(C)C[C@H](NC(=O)[C@H](CC(C)C)NC(=O)[C@@H](Cc1c[nH]c2ccccc12)NC(=O)[C@H](CC1CCCCC1)NC(=O)[C@@H](Cc1cccc2ccccc12)NC(=O)[C@@H](N)CCCCN)C(N)=O [Peptide 21, K-(D-1-Nal)-(Cha)-wLL-NH2] (H-K[d1Nal][Cha][dW]LL-NH2)

Emax [1, 5]: 84%
Emax ± SEM [1, 15]: 84 ± 3 Δ %
x-fold (Emax) [1, 16]: 1.3 x-fold
x-fold (EC50) [1, 17]: 36.5 x-fold
Compound: CC(C)C[C@H](NC(=O)[C@H](CC(C)C)NC(=O)[C@@H](Cc1c[nH]c2ccccc12)NC(=O)[C@H](Cc1ccc(C(C)(C)C)cc1)NC(=O)[C@@H](Cc1cccc2ccccc12)NC(=O)[C@@H](N)CCCCN)C(N)=O [Peptide 22, K-(D-1-Nal)-(L-tBf)-wLL-NH2]

Emax ± SEM [1, 15]: 71 ± 4 Δ %
x-fold (Emax) [1, 16]: 1.1 x-fold
x-fold (EC50) [1, 17]: 146.5 x-fold
Compound: CCC[C@H](NC(=O)[C@@H](Cc1cccc2ccccc12)NC(=O)[C@@H](N)CCCCN)C(=O)N[C@H](Cc1c[nH]c2ccccc12)C(=O)N[C@@H](CC(C)C)C(=O)N[C@@H](CC(C)C)C(N)=O [Peptide 24, K-(D-1-Nal)-(L-Nva)-wLL-NH2] (H-K[d1Nal][Nva][dW]LL-NH2)

x-fold (EC50) [1, 17]: >290 x-fold
Compound: CC(C)C[C@H](NC(=O)[C@H](CC(C)C)NC(=O)[C@@H](Cc1c[nH]c2ccccc12)NC(=O)[C@@H](NC(=O)[C@@H](Cc1cccc2ccccc12)NC(=O)[C@@H](N)CCCCN)c1ccccc1)C(N)=O [Peptide 25, K-(D-1-Nal)-(L-Phg)-wLL-NH2] (H-K[d1Nal][Phg][dW]LL-NH2; N-terminus assumed)

Compound: fQwFwLL-NH2
decrease of affinity in comparison to full-length modified substance P [3]: 5.3 fold
decrease of activity in comparison to full-length modified substance P [4]: 1.6 fold

Compound: wFwLL-NH2 ([dW]F[dW]LL-NH2; N-terminus assumed; SMILES CC(C)C[C@H](NC(=O)[C@H](CC(C)C)NC(=O)[C@@H](Cc1c[nH]c2ccccc12)NC(=O)[C@H](Cc1ccccc1)NC(=O)[C@H](N)Cc1c[nH]c2ccccc12)C(N)=O)
IC50 ([3]; reference 17, read-out: IC50 (receptor binding)): 530 ± 230 nM
